Data taken from ChEMBL document CHEMBL2028040, “Malaria Box”.

Key:
[1] = system: Plasmodium falciparum; assay: MMV: Inhibition of Plasmodium falciparum K1 (EC50).; assay type: functional, organism-based
[2] = system: Trypanosoma cruzi; assay: MMV: Inhibition of Trypanosoma cruzi (Tulahuen C4 LacZ) (Chagas in vitro).; assay type: functional, organism-based
[3] = system: Trypanosoma brucei brucei; assay: MMV: Inhibition of Trypanosoma brucei brucei (Squib 427) (HAT in vitro).; assay type: functional, organism-based
[4] = system: Plasmodium falciparum; assay: MMV: Inhibition of Plasmodium falciparum 3D7 at 5uM compound concentration.; assay type: functional
[5] = MMV: Cytotoxicity against human fibroblasts (MRC-5) cells.; conditions: MRC-5 cells (human fibroblasts)
[6] = system: Trypanosoma brucei rhodesiense; assay: MMV: Inhibition of Trypanosoma brucei rhodesiense (STIB 900) (HAT in vitro).; assay type: functional, organism-based
[7] = system: Leishmania infantum; assay: MMV: Inhibition of Leishmania infantum (MHOM/MA/BE/67) in vitro.; assay type: functional, organism-based
[8] = system: Plasmodium falciparum; assay: MMV: Inhibition of Plasmodium falciparum 3D7 (EC50).; assay type: functional, organism-based

## CC(C)(C)CC(C)(C)NCC(O)COc1ccc2c(c1)CCC2 (stereo unspecified)
[1]
  EC50: 1080 nM
[2]
  IC50: 15.7 µM
[3]
  IC50: 3.49 µM
[4]
  inhibition at 5 µM: 78%
[5]
  IC50: 26.1 µM
[6]
  IC50: 1.02 µM
[7]
  IC50: 4.76 µM

## CCCCCCn1c(=N)n(CC(O)COc2cccc(C)c2)c2ccccc21 (stereo unspecified)
[1]
  EC50: 700 nM
[8]
  EC50: 1140 nM
[2]
  IC50: 3.78 µM
[3]
  IC50: 1.01 µM
[4]
  inhibition at 5 µM: 98%
[5]
  IC50: 4 µM
[6]
  IC50: 0.942 µM
[7]
  IC50: 2.54 µM

## O=C(Nc1nc(-c2ccccn2)cs1)c1ccccc1Br
[1]
  EC50: 1580 nM
[8]
  EC50: 1360 nM
[2]
  IC50: 0.26 µM
[3]
  IC50: 1.04 µM
[4]
  inhibition at 5 µM: 97%
[6]
  IC50: 0.376 µM
[7]
  IC50: 1.59 µM

## COc1ccc(-c2cc(=O)oc3c4c(ccc23)OCN(Cc2ccc(F)cc2)C4)cc1
[1]
  EC50: 294 nM
[8]
  EC50: 735 nM
[2]
  IC50: 13.2 µM
[3]
  IC50: 15.8 µM
[4]
  inhibition at 5 µM: 96%
[5]
  IC50: > 32 µM
[6]
  IC50: 11 µM
[7]
  IC50: 5.38 µM

## CC(O)(c1ccc(Cl)cc1)C(CN1CCCCC1)c1ccccc1 (stereo unspecified)
[1]
  EC50: 576 nM
[2]
  IC50: > 32 µM
[3]
  IC50: 16.1 µM
[4]
  inhibition at 5 µM: 94%
[5]
  IC50: > 32 µM
[6]
  IC50: 14.8 µM
[7]
  IC50: > 32 µM

## CCOC(=O)C1(Cc2ccccc2)CCN(Cc2cccc(OC)c2O)CC1
[1]
  EC50: 1000 nM
[2]
  IC50: 17.1 µM
[3]
  IC50: 16.7 µM
[4]
  inhibition at 5 µM: 95%
[5]
  IC50: > 32 µM
[6]
  IC50: 15.3 µM
[7]
  IC50: > 32 µM

## CCOc1ccc2c(c1)CN(Cc1ccc(Cl)cc1)CO2
[1]
  EC50: 184 nM
[8]
  EC50: 439 nM
[2]
  IC50: > 32 µM
[3]
  IC50: 7 µM
[4]
  inhibition at 5 µM: 97%
[5]
  IC50: > 32 µM
[6]
  IC50: 11 µM
[7]
  IC50: > 32 µM

## CC(C)(C)c1ccc2c(c1)CN(Cc1ccc(Cl)cc1)CO2
[1]
  EC50: 107 nM
[8]
  EC50: 362 nM
[2]
  IC50: 17.7 µM
[3]
  IC50: 10.1 µM
[4]
  inhibition at 5 µM: 98%
[5]
  IC50: > 32 µM
[6]
  IC50: 5.04 µM
[7]
  IC50: > 32 µM

## CCCCC(O)(c1ccc(Cl)cc1)C(CN1CCOCC1)c1ccc(Cl)cc1 (stereo unspecified)
[1]
  EC50: 1530 nM
[8]
  EC50: 1380 nM
[2]
  IC50: 14.3 µM
[3]
  IC50: 3.91 µM
[4]
  inhibition at 5 µM: 98%
[5]
  IC50: > 32 µM
[6]
  IC50: 4.32 µM
[7]
  IC50: 10.2 µM

## COc1ccc(C(=O)NC(c2ccccc2Cl)c2cc(Cl)c3cccnc3c2O)cc1 (stereo unspecified)
[1]
  EC50: 703 nM
[2]
  IC50: > 32 µM
[3]
  IC50: > 32 µM
[4]
  inhibition at 5 µM: 96%
[5]
  IC50: > 32 µM
[6]
  IC50: > 32 µM
[7]
  IC50: > 32 µM

## Cc1cc(=O)oc2c1ccc1oc(C(=O)c3ccccc3)c(C)c12
[1]
  EC50: 683 nM
[2]
  IC50: > 32 µM
[3]
  IC50: > 32 µM
[4]
  inhibition at 5 µM: 94%
[5]
  IC50: 6.35 µM
[6]
  IC50: 20.8 µM
[7]
  IC50: > 32 µM

## Oc1ccc(Br)cc1CN1CCN(Cc2ccc(Cl)cc2)CC1
[1]
  EC50: 899 nM
[2]
  IC50: 8.28 µM
[3]
  IC50: > 32 µM
[4]
  inhibition at 5 µM: 97%
[5]
  IC50: > 32 µM
[6]
  IC50: 14.9 µM
[7]
  IC50: > 32 µM

## CCCc1c(C)nc2ccc(Br)cc2c1O
[8]
  EC50: 1190 nM
[2]
  IC50: > 32 µM
[3]
  IC50: > 32 µM
[4]
  inhibition at 5 µM: 64%
[5]
  IC50: > 32 µM
[6]
  IC50: > 32 µM
[7]
  IC50: > 32 µM

## CC1=C(CC(=O)c2cccc([N+](=O)[O-])c2)C(=O)c2ccccc2C1=O
[8]
  EC50: 381 nM
[2]
  IC50: 13.4 µM
[3]
  IC50: 14.5 µM
[4]
  inhibition at 5 µM: 95%
[5]
  IC50: > 32 µM
[6]
  IC50: 16 µM
[7]
  IC50: > 32 µM

## CCOc1c(Cl)cc(CNC(C)C(O)c2ccccc2)cc1OC (stereo unspecified)
[1]
  EC50: 706 nM
[2]
  IC50: > 32 µM
[3]
  IC50: 9.51 µM
[4]
  inhibition at 5 µM: 98%
[5]
  IC50: > 32 µM
[6]
  IC50: 4.09 µM
[7]
  IC50: 16.6 µM

## COc1ccc(C2Sc3ccccc3N=C3C2=C(O)c2ccccc23)cc1 (stereo unspecified)
[1]
  EC50: 1930 nM
[8]
  EC50: 845 nM
[2]
  IC50: 4.51 µM
[3]
  IC50: 4 µM
[4]
  inhibition at 5 µM: 96%
[5]
  IC50: > 32 µM
[6]
  IC50: 3.54 µM
[7]
  IC50: 4.76 µM

## CCCCCn1c(=N)n(CC(O)COc2cccc(C)c2)c2ccccc21 (stereo unspecified)
[1]
  EC50: 1250 nM
[2]
  IC50: 4.21 µM
[3]
  IC50: 0.923 µM
[4]
  inhibition at 5 µM: 96%
[5]
  IC50: 15.5 µM
[6]
  IC50: 0.986 µM
[7]
  IC50: 3.41 µM

## CN1c2ccccc2N(C)C1c1ccc2c(c1)OCO2
[8]
  EC50: 994 nM
[2]
  IC50: > 32 µM
[3]
  IC50: > 32 µM
[4]
  inhibition at 5 µM: 60%
[5]
  IC50: > 32 µM
[6]
  IC50: > 32 µM
[7]
  IC50: > 32 µM

## C=C(C)CCC(C)N1CCC(N2CCC(C(=O)NCCc3ccccc3)CC2)CC1 (stereo unspecified)
[8]
  EC50: 1750 nM
[2]
  IC50: 18.2 µM
[3]
  IC50: 17.7 µM
[4]
  inhibition at 5 µM: 96%
[5]
  IC50: 19 µM
[6]
  IC50: 7.79 µM
[7]
  IC50: > 32 µM

## Cc1ccc(S(=O)(=O)c2c(COC(=O)c3cccc(C)c3)c(-c3ccccc3)nn2C)cc1
[1]
  EC50: 776 nM
[2]
  IC50: 23.6 µM
[3]
  IC50: 16.3 µM
[4]
  inhibition at 5 µM: 95%
[5]
  IC50: > 32 µM
[6]
  IC50: 16.5 µM
[7]
  IC50: 17.3 µM
